Source: article PMC7822874, “Chemoprotective antimalarials identified through quantitative high-throughput screening of Plasmodium blood and liver stage parasites” (Scientific Reports, 2021)
Read-outs that look alike come from different tables or passages of the source.

How the values were obtained:
[1] = tested on: P. falciparum Dd2 (clone B2) asexual blood stage parasites; experiment: P. falciparum Dd2 asexual blood stage SYBR Green-I 72 h proliferation assay (qHTS); type: cell-based, Plasmodium falciparum; settings: averaged P. falciparum asexual blood stage potency, log10 of AC50 in M
HepG2-A16-CD81EGFP cells = settings: averaged response (percent)
[2] = tested on: P. berghei-ANKA-GFP-LucCON liver stage parasites in HepG2-A16-CD81EGFP cells; experiment: P. berghei liver stage Pb-Luc assay, Method 1 (UCSD, 1536-well); type: cell-based, Plasmodium berghei; settings: P. berghei liver stage, averaged response (percent); for Average P. berghei 1 µM response (%): the header list (r8) defines it as the 1 µM dose
[3] = HepG2, the header list (r10) describes it as the 1 µM dose

Row | Compound | Pf ABS Log AC50 (M) [1] [M] | Average HepG2 3 µM response( %) (HepG2-A16-CD81EGFP cells; HepG2, 3 µM dose) [%] | Average HepG2 3 µM response( %) (HepG2-A16-CD81EGFP cells; [3]) [%] | Average P. berghei 3 µM response( %) [2] [%] | Average P. berghei 1 µM response (%) [2] [%]
1 | O=C(Nc1ccc(Cl)cc1)Nc1ccc2c(c1)N1CCN=C1S2 [MLS000078440] | -5.612 | 94 | 98 | 69 | –
2 | COc1cccc(OC)c1C(=O)NC(S)=Nc1ccc2c(c1)C(=O)N(C)C2=O [MLS000331897] | -6.025 | 104 | 104 | 113 | 122
3 | CCN(CC)CCn1c(=N)n(CC(O)COc2ccccc2C)c2ccccc21 (stereo not shown) [NCGC00101835] | -5.475 | 100 | 104 | 72 | 117
4 | COc1ccc(CCN2CCC(Nc3nc4ccccc4n3Cc3ccc(F)cc3)CC2)cc1 [NCGC00016913] | -5.658 | 100 | 99 | 43 | 54
5 | Cc1ccc(/C=N/NC(=O)c2cc3ccccc3cc2O)o1 [MLS001219838] | -5.275 | 98 | 98 | 6.47 | 18
6 | Cc1nn2c(c1-c1ccccc1-c1ccccc1)N(Cc1ccc(O)cc1)CCC2 [NCGC00420512] | -6.314 | 111 | 98 | 24 | 80
7 | Oc1ccc(-c2nnc(S)n2-c2ccc3c(c2)OCCO3)c(O)c1 [MLS000332001] | -6.012 | 95 | 101 | 70 | 78
8 | CCOc1ccc(Nc2nc(NCC3CCCO3)c3ccccc3n2)cc1 (stereo not shown) [MLS000724397] | -5.737 | 84 | 102 | 10 | 59
9 | OC(CNCCNc1ncccc1C(F)(F)F)Cn1ccc2ccccc21 (stereo not shown) [MLS000833573] | -5.662 | 95 | 101 | 109 | 113
10 | N=c1n(N)c2ccccc2n1CC(=O)c1ccc(Br)cc1 [MLS001183984] | -5.837 | 102 | 102 | 137 | 110
